# Source: ChEMBL document CHEMBL3301361, “Experimental in vitro DMPK and physicochemical data on a set of publicly disclosed compounds”
# Experiment: physchem
# Settings: pH 7.4 buffer
row,SMILES,solubility thermodynamic [µM]
1,O=C(O)[C@H](Cc1cccc(F)c1)N1CCC(CN2CCC(Oc3ccc(Cl)c(Cl)c3)CC2)CC1,417
2,O=C(c1ccc(Cl)cc1)C1CCN(C(=O)c2ccccc2)CC1,29.5
3,Cc1c(Br)sc2nc(O)c(-c3ccccc3)c(O)c12,3.9
4,CCOc1ccc(NCC(=O)c2ccc(C)cc2)cc1,1.2
5,CN(C)C(=N)c1ccc(C(=O)N2CCN(S(=O)(=O)c3ccc4cc(Br)ccc4c3)CC2)cc1,1320
6,C[C@@H](Nc1ncnc2[nH]c(-c3ccc(O)cc3)cc12)c1ccccc1 [PKI-166],28.8
7,COc1ccc(Cl)c(Nc2ncnc3cc(OCCCN4CCN(C(C)=O)CC4)cc(OC(C)C)c23)n1,50.1
8,COc1ccc(Cl)cc1NC(=O)c1cnccn1,12
9,CN(C(=O)Cc1ccc(-n2cnnn2)cc1)C1CCN(Cc2ccc(C(F)(F)F)nc2)CC1,182
10,N#CC1(NC(=O)[C@@H]2CCCC[C@H]2C(=O)N2CCc3[nH]c4ccc(Cl)cc4c3C2)CC1,129
11,Cc1ccccc1Oc1cc(-n2ncc(Cl)c(Cl)c2=O)ncn1,1
12,O=c1c2ccccc2[nH]n1CCc1ccccc1,550
13,CNS(=O)(=O)c1ccc(Nc2nccc(-c3cnc(C)n3C)n2)cc1,2.7
14,COc1ccc(Br)c(C=O)c1O,468
15,Cc1ccc(C(=O)N2CCC(C(=O)c3ccc(F)cc3)CC2)cc1,20.4
16,COc1cc2c(Nc3cc(CC(=O)Nc4cc(F)cc(F)c4)[nH]n3)ncnc2cc1OCCCN1CCC(CO)CC1,214
17,COc1cc2ncnc(Nc3cccc(Cl)c3F)c2cc1CN(C)C1CCNC1=O (stereo not drawn),89.1
18,CN(C)CCCNS(=O)(=O)c1ccc(Nc2nccc(-c3cnc4cccnn34)n2)cc1,158
19,O=C(Nc1ccccc1)c1ccc2cccc(O)c2n1,6.6

row,SMILES,solubility thermodynamic [µM]
1,Fc1ccc(CN2CCN(C3=Nn4c(nnc4C(F)(F)F)CC3)CC2)cc1,525
2,Cc1cc(C)cc(-c2[nH]c3sc(C(C)(C)C(=O)N4C5CCC4CC5)cc3c2CN2CCN(CC(=O)N3CCCC3)CC2)c1,1.7
3,Cc1nc(-c2c(C)n(Cc3c(F)cccc3F)c(=O)n(C[C@H](N)c3ccccc3)c2=O)cs1,1510
4,CCN(CCO)CCCOc1ccc2c(Nc3cc(CC(=O)Nc4cccc(F)c4F)[nH]n3)ncnc2c1,93.3
5,O=C(c1ccc(F)cc1)C1CCN(C(=O)c2cccc(OC(F)(F)F)c2)CC1,11
6,Cc1c(Cl)c(C(F)(F)F)nn1CC(=O)N1CCN(c2ccc(F)cc2)CC1,1.9
7,C[C@@H]1CN(c2ncc(OCc3ccc(S(C)(=O)=O)cc3)cn2)CCN1C(=O)OC(C)(C)C,3.3
8,CCCSc1c(C(=O)NC2CCCCC2)cnn1C,1230
9,c1ccc(-c2ccc(C(c3ccccc3)n3ccnc3)cc2)cc1 (stereo not drawn) [BIFONAZOLE],1.1
10,CNc1nc2ccc(NC(C)=O)cc2s1,347
11,COc1cc2ncnc(Nc3cc(NC(=O)c4ccnc(N5CCOCC5)c4)ccc3C)c2cc1OCCN(C(C)C)C(C)C,240
12,COCCNS(=O)(=O)c1ccc(Nc2nccc(-c3c(C)nc(C)n3C)n2)cc1,219
13,O=C(Nc1ccccc1)N1CCN(c2ccccn2)CC1,170
14,C[C@@H](Oc1cccc2ncnc(Nc3ccc4c(cnn4Cc4cscn4)c3)c12)C(N)=O,8.7
15,CS(=O)(=O)c1cccc(Nc2nccc(Nc3c(Cl)ccc4c3OCO4)n2)c1,30.2
16,N#CC1(NC(=O)[C@@H]2CCCC[C@H]2C(=O)N2CCc3[nH]c4cc(F)ccc4c3C2)CC1,537
17,COc1cc(OC)cc(-c2cc3cnc(N)nc3nc2NC(=O)NC(C)(C)C)c1,0.4
18,Oc1ncnc2c1nnn2Cc1ccccc1,209
19,Cn1cnc(-c2cccc(NC(=O)Nc3cc(C(F)(F)F)ccc3F)c2)c1-c1cc2c(N)ncnc2s1,0.5
